Data set [1] deals with NFE2L1 pathway. As to the kind of experiment: 3×PSMA4-ARE-LUC reporter with or without N-acetyl-L-cysteine (NAC). The data set is classed as cell-based, human. To be noted: HEK293, 5 μM, 16 h. The text has this: We next examined whether the selected RUN compounds activate the NFE2L1 pathway in a stress-independent manner, while preserving normal ubiquitin-dependent proteasomal degradation. This distinction is crucial, as the therapeutic benefit of NFE2L1 activation lies in its ability to alleviate proteotoxic stress and target disease-related proteins for degradation without compromising normal proteostasis. To assess this, U2OS cells stably expressing the short-lived fluorescent reporter Ub-G76V-GFP were treated with various concentrations of RUN compounds. […] We also examined whether compound-induced activation of NFE2L1 could be attributed to the generation of reactive oxygen species (ROS). To test this, the 3×PSMA4-ARE-LUC reporter assay was performed in the presence or absence of the antioxidant N-acetyl-L-cysteine (NAC). A decrease in reporter activity upon NAC treatment would indicate pathway activation through oxidative stress. […]
To determine whether RUN compounds activate the NFE2L1 pathway via reactive oxygen species (ROS) generation or through Keap1-NRF2 pathway crosstalk, we used the 3xPSMA4-ARE-LUC dual reporter assay in HEK293 cells. […] A reduction in luminescence signal upon NAC co-treatment would indicate that the compound activates the reporter via ROS-mediated mechanism or Keap1-NRF2-dependent oxidative/electrophilic stress. […]

A further data set concerns HEK293 cells. As to the kind of experiment: alamarBlue cytotoxicity assessment in HEK293 cells. Format: cell-based, human. To be noted: HEK293, alamarBlue, 16 h; concentration not given. The protocol:
Figure S2: Concentration-dependent cytotoxicity assessment of RUN compounds.
HEK293 cells were treated for 16 hours with increasing concentrations of RUN compounds (1.25 µM; 2.5 µM; 5; 7.5 and 10 µM) or DMSO (negative control). Cell viability was determined using the alamarBlue assay following the protocol of Riss.(1) Data are presented as means ± SD from three independent experiments (n = 3). Statistical analysis was done using repeated measures one-way ANOVA with Geisser–Greenhouse correction, followed by Dunnett’s multiple comparisons test. *p<0.05. Detailed results of the analysis are shown in […]
(1 picture or pasted object on this page, not shown here)
(§1) 2 Biology Experimental Procedures
(§2) Safety statement: No unexpected or unusually high safety hazards were encountered. […]
(§3) Cell lines were sourced from the ATCC (USA) and/or ECACC (UK), namely HCT116 (human colorectal carcinoma), ATCC CCL-247 (RRID:CVCL_0291), HEK-293 (human embryonic kidney), ATCC CRL-1573 (RRID:CVCL_0045), SH-SY5Y (human neuroblastoma), ATCC CRL-2266 (RRID:CVCL_0019). The characteristics of DDI2 knockout cells derived from HCT116 cells have been described previously (Sedlacek et al., 2025). All cell lines were tested for mycoplasma contamination. Most of the cell lines were cultured in Dulbecco's Modified Eagle Medium (DMEM) enriched with 10% fetal bovine serum (FBS) and 2 mM L-glutamine, under standard conditions of 37 °C with 5% CO₂. DNA transfection was performed with Lipofectamine 2000, following the manufacturer's instructions. Transgenic cells were then selected with either G418 (400 µg/mL) or hygromycin B (450 µg/mL), based on the selection marker encoded by the plasmid used. […]

For data set [2], the system named is NFE2L1 pathway. As to the kind of experiment: 3×PSMA4-ARE-LUC dual luciferase reporter assay in HEK293 cells. Format: cell-based, human. Conditions: Homo sapiens; 5 μM, 16 h, HEK293, luminescence relative to DMSO-treated cells; read-out: NFE2L1 activation [5 μM].
From the text: In our previous work,[43] we developed a library of NFE2L1 stimulators using a cell-based luciferase reporter assay. This system was based on three tandem copies of the antioxidant response element (ARE) derived from the NFE2L1 target gene proteasome subunit alpha type-4 (3xPSMA4, PSMA4-ARE-LUC). It was designed to detect the proteasome “bounce-back” response induced by proteasome inhibitors such as MG132 or bortezomib.[22,43,45,46] The reporter assay was adapted to a 384-well format and used to evaluate a new set of RUN compounds designed around the structural framework of the RUN-47 activator. We focused on identifying compounds that increased the 3×PSMA4-ARE-LUC signal (Fig. 1A), while simultaneously assessing cytotoxicity (see the SI, Fig. S2). […] In contrast, thiourea- and urea-containing derivatives generally produced only weak to intermediate responses, rarely exceeding a fold change of 7.
(§4) Fig. 1 (A) Targeted library screening of RUN compounds using the 3×PSMA4-ARE-LUC dual reporter assay in HEK293 cells. Cells were exposed to RUN compounds (5 μM) for 16 hours, and luciferase activity was measured. Data are presented as the mean ± SD from three independent experiments (n = 3). Results are shown as a fold change in luminescence relative to DMSO-treated cells. Selected hit compounds are highlighted in distinct colours. (B) RUN-89 specifically activates the NFE2L1 pathway. The DDI2 knockout (KO) and parental (WT) HCT116 cells were transfected with the 3×PSMA4-ARE-LUC reporter and treated with 0.5 μM bortezomib (BTZ) and 5 μM RUN-89 for 16 hours. Data are presented as the Geomean ± GeoSD of three independent experiments (n = 3). Statistical analysis was performed on log2-transformed values using two-way repeated-measures ANOVA followed by Šídak's multiple comparison test. (C) RUN-89 selectively triggers downstream signaling events associated with NFE2L1 gene expression. HEK293 cells were transfected with lipid nanoparticles (LNPs) carrying siRNAs targeting NFE2L1 or NFE2L2. LNPs formulated with non-targeting siRNA served as a negative control. Following 24 hours of incubation, cells were treated with 7.5 μM RUN-89 or DMSO (vehicle) for an additional 16 hours. Expression of the proteasomal subunit gene PSMC4 was then quantified by RT-qPCR. Data are shown as the Geomean ± GeoSD from three independent biological replicates (n = 3). Log2-transformed data were analyzed using two-way repeated-measures ANOVA with the Geisser–Greenhouse correction, followed by Tukey's multiple comparison test with individual variances computed for each comparison. Additional results for NFE2L1, NFE2L2, PSMB7, and PSMD12 are presented in SI Fig. S10.
Figure S1: Concentration–response of luciferase cell-based assay (PSMA4-ARE-luc2P reporter) on treatment with RUN-81, RUN-89, and RUN-94. Concentration is plotted on the X-axis. Dose–response relationships were analyzed using a four-parameter logistic curve (4PL), or a bell-shaped dose-response curve, both with weighting 1/Y^2. Dotted lines represent 95% confidence bands. Calculated EC₅₀ values, curve parameters, and asymmetrical confidence intervals are summarized in the accompanying table . Data are presented as mean ± SD from four independent experiments (n=4).
as §1, §2
Most of the cell lines were cultured in Dulbecco's Modified Eagle Medium (DMEM) enriched with 10% fetal bovine serum (FBS) and 2 mM L-glutamine, under standard conditions of 37 °C with 5% CO₂. DNA transfection was performed with Lipofectamine 2000, following the manufacturer's instructions. Transgenic cells were then selected with either G418 (400 µg/mL) or hygromycin B (450 µg/mL), based on the selection marker encoded by the plasmid used. Cell viability was evaluated using the […]

Data set [3] has as its system NFE2L1 pathway (DDI2-dependent) in HCT116 cells. As to the kind of experiment: 3×PSMA4-ARE-LUC reporter in HCT116 WT and DDI2 knockout cells. The data set is classed as cell-based, human. The protocol: as §4
To clarify whether the representative compound RUN-89 activates the NFE2L1-specific luciferase reporter independently of the KEAP1–NFE2L2 pathway, we used the 3×PSMA4-ARE-LUC dual reporter in previously published DDI2 knockout HCT116 cells (from ATCC CCL-247 (RRID:CVCL_0291)), in which the protease essential for NFE2L1 activation is disrupted. […] These findings indicate that RUN-89 activates the reporter construct through NFE2L1.
2 Biology Experimental Procedures […]
as §3, with “instructions.” for “instructions. Transgenic cells were then selected with either G418 (400 µg/mL) or hygromycin B (450 µg/mL), based on the selection marker encoded by the plasmid used.”
alamarBlue assay according to the standard protocol.(1)
2.3 Dual luciferase phenotypic assays
HEK293-derived cells stably expressing the 3×PSMA4-ARE-Luc reporter were maintained at low to mid passage numbers before use. For each experiment, cells were transiently transfected with the pRL-TK Renilla luciferase plasmid using Lipofectamine 2000.
Approximately 5–6 hours post-transfection, cells were seeded into plate format according to the experiment (384-well plate mostly). On the following day, cells were treated with the indicated test compounds or DMSO vehicle control for 16 hours (unless otherwise specified).
After treatment, cells were lysed and luciferase activities were quantified using the Dual-Luciferase® Reporter Assay System according to the manufacturer’s instructions and established protocols.(2, 3) For assays using the CMV-XBP-Gluc construct encoding Gaussia […]

The subject of data set [4] is ubiquitin-proteasome system. As to the kind of experiment: Ub-G76V-GFP reporter degradation in U2OS cells. The data set is classed as cell-based. The text has this: We next examined whether the selected RUN compounds activate the NFE2L1 pathway in a stress-independent manner, while preserving normal ubiquitin-dependent proteasomal degradation. This distinction is crucial, as the therapeutic benefit of NFE2L1 activation lies in its ability to alleviate proteotoxic stress and target disease-related proteins for degradation without compromising normal proteostasis. To assess this, U2OS cells stably expressing the short-lived fluorescent reporter Ub-G76V-GFP were treated with various concentrations of RUN compounds. […] We also examined whether compound-induced activation of NFE2L1 could be attributed to the generation of reactive oxygen species (ROS). To test this, the 3×PSMA4-ARE-LUC reporter assay was performed in the presence or absence of the antioxidant N-acetyl-L-cysteine (NAC). A decrease in reporter activity upon NAC treatment would indicate pathway activation through oxidative stress.
RUN compound (5 µM) for 8 hours. Fluorescence intensity was normalized to cell viability (measured by the alamarBlue assay) and compared to vehicle control (DMSO). Unlike the […]
as means ± SD from three independent experiments (n = 3). Statistical analysis was performed using a multiple unpaired t-test with Welch’s correction, with adjustment for multiple comparisons by the Holm–Šídák method (α = 0.05). ****p<0.0001. Detailed results of the analysis are shown in Supplementary Table S14. […]
2.4 Monitoring protein degradation using UbG76V-GFP reporter cells
U2OS cells stably expressing the Ub-G76V-GFP reporter were seeded into 96-well plates at and cultured overnight under standard conditions. On the following day, cells were treated with the indicated test compounds or DMSO vehicle control for 8 hours. After treatment, GFP fluorescence intensity was measured, providing a readout of proteasome-dependent degradation of the Ub-G76V-GFP substrate. Cell viability was then assessed in the same wells using the alamarBlue assay according to the manufacturer’s protocol. Viability values were used for normalization of fluorescence data to account for differences in cell number. Accumulation of GFP signal relative to DMSO-treated controls was interpreted as reduced degradation of UPS substrates, indicating potential effects of the compounds on the natural protein turnover.
Statistical comparison of RUN compounds with ASC-JM17 was performed using a multiple unpaired t-test with Welch’s correction, with adjustment for multiple comparisons by the Holm–Šídák method (α = 0.05) in GraphPad Prism (v 10.6.1). […]
RNA was extracted using […]
the RNeasy® Plus Micro Kit according to the manufacturer’s instructions. Complementary DNA (cDNA) was synthesized from RNA using either t he TATAA GrandScript cDNA Supermix (TATAA Biocenter) or the QuantiTect® Reverse Transcription Kit (Qiagen), following the respective protocols. Quantitative RT -PCR was performed on a LightCycler® 480 instrument (Roche Life Science) using the TATAA SYBR® Gr andMaster® Mix (TATAA […]
Biocenter). Gene expression levels were normalized to RPLP0, and relative expression was calculated using the ΔΔCt method. Data were expressed as fold change relative to the corresponding DMSO control. Statistical analysis of changes in gene expression was performed w ith a ratio paired t-test corrected for multiple comparisons using Holm-Šídák's method (α = 0.05) in GraphPad Prism (v 10.6.1).
Table S1. Sequences of primer pairs used in the qRT -PCR analysis of gene expression.

`COc1ccc(/C=C2\CNC/C(=C\c3ccc(OC)c(OC)c3)C2=O)cc1OC` [RUN-84]: the “NFE2L1 reporter activation in the presence of NAC” value with NFE2L1 pathway [1] is given as “reduction in activation”. In the data set on HEK293 cells, the “Tox [% of ctrl.]” value is recorded as 73% of ctrl. The fold induction at 5 µM in the data set with NFE2L1 pathway [2] was found to be 4.
With `CC(C)C[C@H](NC(=O)[C@H](Cc1ccccc1)NC(=O)c1cnccn1)B(O)O` [BTZ, bortezomib, reference compound], the “Mean log2-transformed reporter fold change, HCT116 KO 04” value in data set [3] (DDI2-/- clone KO 04, 0.5 μM BTZ or 5 μM RUN-89, 16 h, DMSO = 0) was 0.1712. Besides, the “Mean log2-transformed reporter fold change, HCT116 KO 11” value in data set [3] (DDI2-/- clone KO 11, 0.5 μM BTZ or 5 μM RUN-89, 16 h, DMSO = 0) came out at 0.1696. Also, in data set [3] (DDI2 knockout HCT116, in contrast to wild-type cells), the “Reporter activity in DDI2-deficient cells” value is recorded as “neither the proteasome inhibitor bortezomib nor RUN-89 induced reporter activity”. Also, the “Mean log2-transformed reporter fold change, HCT116 WT” value in data set [3] (WT (DDI2+/+), 0.5 μM BTZ or 5 μM RUN-89, 16 h, DMSO = 0) was 1.529.
Take `COc1ccc(/C=C/C(=O)C(CC2CCC2)C(=O)/C=C/c2ccc(OC)c(OC)c2)cc1OC` [ASC-JM-17, reference compound]: the “Ub-G76V-GFP reporter assay, mean” value in data set [4] (U2OS cells, Fig. S3) is given as 4.073. The “Ub-G76V-GFP degradation (ubiquitin-proteasome system function)” value in data set [4] (U2OS, 5 μM, 8 h, versus DMSO) is reported as “impaired proteasomal degradation”.

Source of the values: publication PMC12606464, “Investigating NFE2L1 activators for targeted protein aggregate clearance: a follow-up study” (RSC Medicinal Chemistry, 2025).
